Structures can show the parent of a compound that is named as a salt.

The target in the first assay is T1, thromboxane synthetase (Rattus norvegicus, UniProt P49430).
T1 construct: The platelets were isolated by centrifuging the PRP for 10 minutes at 1060xg; from tissue; host or cells: washed blood platelets from Okamoto-Aoki spontaneously hypertensive rats (SHR)
T1 sequence (P49430 1-533): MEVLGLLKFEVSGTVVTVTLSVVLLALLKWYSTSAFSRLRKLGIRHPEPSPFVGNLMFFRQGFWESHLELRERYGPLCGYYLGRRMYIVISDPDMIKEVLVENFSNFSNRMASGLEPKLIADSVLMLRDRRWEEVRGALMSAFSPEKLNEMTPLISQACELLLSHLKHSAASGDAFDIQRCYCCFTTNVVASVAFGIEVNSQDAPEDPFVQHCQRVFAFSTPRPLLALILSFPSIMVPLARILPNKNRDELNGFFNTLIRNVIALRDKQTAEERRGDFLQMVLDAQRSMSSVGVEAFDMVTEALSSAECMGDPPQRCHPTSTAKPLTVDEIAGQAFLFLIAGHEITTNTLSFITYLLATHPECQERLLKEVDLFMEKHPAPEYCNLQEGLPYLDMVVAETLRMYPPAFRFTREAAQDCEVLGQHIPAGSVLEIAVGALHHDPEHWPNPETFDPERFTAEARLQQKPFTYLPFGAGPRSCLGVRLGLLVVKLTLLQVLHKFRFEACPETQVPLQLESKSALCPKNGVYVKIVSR
Put plainly: Inhibition of thromboxane (TX) formation (TXB2 radioimmunoassay) in washed rat platelets. In kind it is cell-based, Okamoto-Aoki spontaneously hypertensive rats (SHR). The following applies: percent inhibition of TXB2 formation; drug at 10^-4M; SHR platelet suspension, 10 minutes at 37 C. The source says: The platelet rich plasma (PRP) was separated. […] The inhibition of thromboxane (TX) formation was studied by determing the concentration of thromboxane […] (TXB2), the stable hydrolysis product of TXA2.
Broadly, the inhibition is the change of the read-out against control, counted positive when it falls. The molecule `O=c1c2cc(Br)ccc2ncn1CCCCc1cccnc1` [6-Bromo-3-[4-(3-pyridyl)butyl]-4(3H)-quinazolinone] showed an inhibition at 100 µM of 99%.
Same read-out and setting: in the case of `CC(Cn1ccnc1)Cn1nnc2ccc(Cl)cc2c1=O` (stereo not drawn) [6-Chloro-3-[3-(1H-imidazol-1-yl)-2-methyl-propyl]-1,2,3-benzotriazin-4(3H)-one, mono-hydrochloride] it was 93%; in that of `O=c1c2cc(Cl)ccc2nnn1CCCCn1ccnc1` [6-Chloro-3-[4-(1H-imidazol-1-yl)butyl]-1,2,3-benzotriazin-4(3H)-one, monohydro-chloride], 97%; in that of `O=c1[nH]c2ccc([N+](=O)[O-])cc2c(=O)n1CCCn1ccnc1` [Example 15, 3-[3-(1H-Imidazol-1-yl)propyl]-6-nitro-2,4(1H,3H)-quinazolinedione], 100%.
In the case of `O=c1[nH]c2ccccc2c(=O)n1CCCCc1cccnc1` [Example 22, 3-[4-(3-Pyridinyl)butyl]-2,4(1H,3H)-quinazolinedione], the inhibition at 100 µM turned out to be 99%.
Still for that read-out and setting: in the case of `O=c1[nH]c2ccc(Cl)cc2c(=O)n1CCCn1ccnc1-c1ccccc1` [Example 27, 6-Chloro-3-[3-(2-phenyl-1H-imidazol-1-yl)propyl]-2,4(1H,3H)-quinazolinedione] it was 52%; in that of `O=c1[nH]c2ccc(Cl)cc2c(=O)n1CCCCc1cccnc1` [Example 29, 6-Chloro-3-[4-(3-pyridinyl)butyl]-2,4(1H,3H)-quinazolinedione], 100%; in that of `O=c1[nH]c2ccc(Cl)cc2c(=O)n1CCCCCn1ccnc1` [Example 32, 6-Chloro-3-[5-(1H-imidazol-1-yl)pentyl]-2,4(1H,3H)-quinazolinedione], 63%.
As to `O=c1[nH]c2ccc(Cl)cc2c(=O)n1CCC(c1ccccc1)n1ccnc1` (stereo not drawn) [Example 36, 6-Chloro-3-[3-(1H-imidazol-1-yl)-3-phenylpropyl]-2,4(1H,3H)-quinazolinedione], 100 µM produced 93% inhibition.
The same measure, in the same setting: in the case of `CC(Cn1ccnc1)Cn1c(=O)[nH]c2c(Cl)cccc2c1=O` (stereo not drawn) [Example 45, 8-Chloro-3-[3-(1H-imidazol-1-yl)-2-methylpropyl]-2,4(1H,3H)-quinazolinedione] it was 71%; in that of `O=c1[nH]c2c(Cl)cc(Cl)cc2c(=O)n1CCCCn1ccnc1` [Example 46, 6,8-Dichloro-3-[4-(1H-imidazol-1-yl)-butyl]-2,4(1H,3H)-quinazolinedione], 89%; in that of `CC(CCn1c(=O)[nH]c2c(Cl)cc(Cl)cc2c1=O)n1ccnc1` (stereo not drawn) [Example 47, 6,8-Dichloro-3-[3-(1H-imidazol-1-yl)-butyl]-2,4(1H,3H)-quinazolinedione], 67%.
The molecule `CC(Cn1ccnc1)Cn1c(=O)[nH]c2c(Cl)cc(Cl)cc2c1=O` (stereo not drawn) [Example 48, 6,8-Dichloro-3-[3-(1H-imidazol-1-yl)-2-methylpropyl]-2,4(1H,3H)-quinazoline-dione] showed an inhibition at 100 µM of 86%.
In turn, `O=c1[nH]c2ccc(Br)cc2c(=O)n1CCCn1ccnc1` [Example 51, 6-Bromo-3-[3-(1H-imidazol-1-yl)propyl]-2,4(1H,3H)-quinazolinedione] came in with an inhibition at 100 µM of 100%.
The same measure, in the same setting: next, `CC(Cn1ccnc1)Cn1nnc2ccccc2c1=O` (stereo not drawn) [Example 78, 3-[3-(1H-Imidazol-1-yl)-2-methyl-propyl]-1,2,3-benzotriazin-4(3H)-one, monohydrochloride]: 92%; `O=c1c2ccc(Cl)cc2nnn1CCCCn1ccnc1` [Example 80, 7-Chloro-3-[4-(1H-imidazol-1-yl)-butyl]-1,2,3-benzotriazin-4(3H)-one]: 90%; `O=c1c2cc(Cl)cc(Cl)c2nnn1CCCCn1ccnc1` [Example 81, 6,8-Dichloro-3-[4-(1H-imidazol-1-yl)butyl]-1,2,3-benzotriazin-4(3H)-one, monohydrochloride]: 93%.
`CC(Cn1ccnc1)Cn1nnc2ccc(Br)cc2c1=O` (stereo not drawn) [Example 83, 6-Bromo-3-[3-(1H-imidazol-1-yl)--2-methylpropyl]-1,2,3-benzo-triazin-4(3H)-one] had an inhibition at 100 µM of 99%.
Still for that read-out and setting: in the case of `Cc1ccc2nnn(CC(C)Cn3ccnc3)c(=O)c2c1` (stereo not drawn) [Example 85, 3-[3-(1H-Imidazol-1-yl)-2-methyl-propyl]-6-methyl-1,2,3-benzo-triazin-4(3H)-one, monohydro-chloride] it was 95%; in that of `O=c1c2ccccc2nnn1CCCCc1cccnc1` [Example 90, 3-[4-(3-Pyridin-yl)butyl]-1,2,3-benzotriazin-4(3H)-one], 75%; in that of `O=c1c2cc(Cl)ccc2nnn1CCCCCCCCCCn1ccnc1` [Example 91, 6-Chloro-3-[10-(1H-imidazol-1-yl)decyl]-1,2,3-benzotriazin-4(3H)-one, fumarate], 80%.
`Cc1cn(CCCn2nnc3ccc(Cl)cc3c2=O)cn1` [Example 92, 6-Chloro-3-[3-(4-methyl-1H-imida-zol-1-yl)propyl]-1,2,3-benzotria-zin-4(3H)-one]: testing at 100 µM gave an inhibition of 85%.
On the same count and under the same terms, next, `O=c1c2cc(Cl)ccc2nnn1CCCCc1cccnc1` [Example 93, 6-Chloro-3-[4-(3-pyridinyl)butyl]-1,2,3-benzotria-zin-4(3H)-one]: 85%; `O=c1c2cccc(C(F)(F)F)c2nnn1CCCCn1ccnc1` [Example 94, 3-[4-(1H-Imida-zol-1-yl)butyl]-8-trifluoro-methyl-1,2,3-benzotriazin-4(3H)-one]: 86%.
On to `O=c1c2cccc(C(F)(F)F)c2nnn1CCCCCn1ccnc1` [Example 95, 3-[5-(1H-Imida-zol-1-yl)pentyl]-8-trifluoro-methyl-1,2,3-benzotriazin-4(3H)-one], for which the inhibition at 100 µM was 87%.
On the same count and under the same terms, in the case of `Cc1cn(CCCn2cnc3ccccc3c2=O)cn1` [Example 133, 3-[3-(4-Methyl-1H-imidazol-1-yl)propyl]-4(3H)-quinazolinone] it was 74%; in that of `O=c1c2ccccc2ncn1CCCCc1cccnc1` [Example 135, 3-[4-(3-Pyridyl)butyl]-4(3H)-quina-zolinone, dihydrochloride], 99%; in that of `O=c1c2ccccc2ncn1CCCCCCn1ccnc1` [Example 136, 3-[6-(1H-Imidazol-1-yl)hexyl]-4(3H)-quinazolinone, dihydrochloride], 86%.
Same read-out and setting: in the case of `CC(Cn1ccnc1)Cn1cnc2ccc(Cl)cc2c1=O` (stereo not drawn) [Example 141, 6-Chloro-3-[3-(1H-imidazol-1-yl)-2-methylpropyl]-4(3H)quinazolinone] it was 94%; in that of `O=c1c2cc(Cl)ccc2ncn1CCCCc1cccnc1` [Example 142, 6-Chloro-3-[4-(3-pyridyl)butyl]-4(3H)-quinazolinone], 100%.
On to `O=c1c2cc(Cl)ccc2ncn1CCCn1ccnc1-c1ccccc1` [Example 144, 6-Chloro-3-[3-(2-phenyl-1H-imidazol-1-yl)propyl]-4(3H)-quinazolinone, dihydro-chloride], for which testing at 100 µM gave an inhibition of 96%.
Still for that read-out and setting: in the case of `O=c1c2cc(Cl)ccc2ncn1CCC(c1ccccc1)n1ccnc1` (stereo not drawn) [Example 148, 6-Chloro-3-[3-(1H-imidazol-1-yl)-3-phenylpropyl]-4-(3H)-quinazolinone] it was 79%.

For a further assay, the system named is spontaneously hypertensive rats of the Okamoto strain. Put plainly: Hypotensive activity in spontaneously hypertensive rats (method of Chan and Poorvin). The format is in vivo. Conditions: male SHR, average MABP 160±1.5 mm of mercury; gavage, 100 mg/kg or less, second identical dose 24 hours later; MABP at 28 hours after the initial dose; number of rats in brackets. As to the method:
The novel compounds of the present invention are also active hypotensive agents and were tested for hypotensive activity by the method of P. S. Chan and b. Poorvin, Clinical and Experimental Hypertension, 1 (6), 817-830 (1979). Male, 16 week old, spontaneously hypertensive rats of the Okamoto strain, from Taconic Farms, Germantown, New York having an average mean arterial blood pressure of 160±1.5 mm of mercury were used in the test. […] A second identical dose of the test compound, without sodium chloride loading is given 24 hours later. At 28 hours after the initial dose, the mean arterial blood pressure (MABP) is measured by the method of Chan and Poorvin vide supra. The procedure is repeated in a second and third rat when necessary. The results of this test on representative compounds of the present invention appear in Table II below.
For the molecule `CC(CCn1cnc2ccccc2c1=O)n1ccnc1.O=C(O)/C=C/C(=O)O` (stereo not drawn) [3-[3-(1H-Imidazol-1-yl)butyl]-4(3H)-quinazolinone, fumarate salt], the “MABP/mm Hg (no. of rats)” value is given as 119(2) mm Hg.
As for `Cc1ccc2c(=O)n(CCCCn3ccnc3)c(=O)[nH]c2c1C` [Example 50, 7,8-Dimethyl-3-[4-(1H-imidazol-1-yl)-butyl]-2,4(1H,3H)-quinazolinedione], the “MABP/mm Hg (no. of rats)” value was 104(2) mm Hg.
Same read-out and setting: in the case of `O=c1c2cc(Cl)ccc2nnn1CCCCn1ccnc1` [Example 88, 6-Chloro-3-[4-(1H-imidazol-1-yl)-butyl]-1,2,3-benzotriazin-4(3H)-one] it was 105(2) mm Hg; in that of `Cl.Cl.O=c1c2ccccc2ncn1CCCCCn1ccnc1` [Example 137, 3-[5-(1H-Imidazol-1-yl)pentyl]-4(3H)-quinazolinone, dihydrochloride], 110(2) mm Hg.
